The nature of series [1]: Stability and photostability studies by 1H NMR. The series is classed as physicochemical. As to the method:
Solutions of complexes 1 and 6 at 3.2 mM and 2 at 0.6 mM in DMSO-d6 and DMSO-d6/D2O mixture (9:1, v/v) were prepared.

A short description of series [2]: pKa determination (absorbance vs pH). The series is classed as physicochemical. The settings on record: DMSO/H2O (2/98, v/v), Bu4NBF4 5 mM; piperidine ring. As to the method: Solutions of complexes 5 and 6 (2.00 × 10^–5 M) and Imepip ligand (2.00 × 10^–3 M) in H2O/DMSO (98/2, v/v) mixture with n-Bu4NBF4 (5 mM) were prepared. The presence of the salt ensured the conductivity of the media. Evolution of the peaks was studied at different pH by recording the absorbance spectrum. Aliquots of 10 μL of HCl (0.002–0.020 M) or NaOH (0.002–0.020 M) were added to a solution of 2.4 mL of complex to vary the pH. The absorbance versus pH plot enables us to determine one constant according to the equation from the Wilson and Lester method (eq 2):[146] [drawing 23] 2 where Aa is the absorbance for the acid species, Ab is the absorbance for the basic species, and Am is the absorbance of the mixture. The intersection obtained by representing log(Am – Aa)/(Ab – Am) versus pH provides the pKa.

Series [3] relates to A549 cells. In words: Superoxide anion production (ROS-ID Superoxide Detection Kit). The series is classed as cell-based, human. The conditions noted are these: 10 nM, photoactivated with blue light. As to the method: The types of ROS generated by the treatments were also investigated. Superoxide anion (O2^•–) production was monitored using the ROS-ID Superoxide Detection Kit (Enzo Life Sciences), which contains a cell-permeable probe that selectively emits orange fluorescence upon reacting with O2^•–. Following the treatments, cells were harvested and incubated with the probe for 30 min at 37 °C. Fluorescence emission from 1 × 10^4 cells was measured by flow cytometry (Ex/Em: 550/620 nm) and compared to that of control untreated cells. In addition, hydrogen peroxide (H2O2) generation was measured using the Hydrogen Peroxide Assay Kit (Cell-based) (Abcam). […] After 1 h of incubation at 37 °C, the median fluorescence of 1 × 10^4 cells was determined by flow cytometry (Ex/Em = 490/520 nm) and compared to that of control cells. All experiments were conducted in triplicate.

For series [4], the system named is A549 cells. In words: Subcellular distribution (cell fractionation, ICP-MS). In kind it is cell-based, human. The settings on record: 10 μM, 4 h, 37 °C. As to the method:
The intracellular distribution of complex 6 was explored by measuring the iridium content in different cellular compartments: nucleus, membrane/particulate (which includes cellular organelles and organelle’s membrane proteins), cytosol, and cytoskeleton. To this end, 8 × 10^6 A549 cells were incubated with 6 at 10 μM for 4 h in the dark at 37 °C. Then, the cells were washed twice with PBS, detached with trypsin, and centrifuged to obtain the whole cell pellet. The viability of the cells was assessed through Trypan blue staining, which confirmed that over 95% of the cells were viable. The different cell fractions were then isolated using the FractionPREP Cell Fractionation kit (BioVision) and the total iridium content in each fraction was measured by ICP-MS in two independent experiments, as described above.

Series [5] deals with A549 cells. The experiment in a line: Cell death mechanism (Annexin V-FITC / propidium iodide). The series is classed as cell-based, human. The settings on record: photoactivated. As to the method: The cell death mechanism was analyzed with the Vybrant Apoptosis Assay Kit (Molecular Probes). A549 cells seeded in 12-well plates at a density of 1 × 10^5 cells per well were treated with complex 6 at the corresponding IC50,light × 5 under photoactivation conditions. Cisplatin at 50 μM was used as positive control. 4 and 20 h after the irradiation, cells were collected by trypsinization and immediately stained with Annexin V-FITC and propidium iodide according to the manufacturer’s instructions. The median fluorescence of 10,000 cells of each sample was analyzed by flow cytometry. Annexin-FITC staining was detected at a wavelength of 520 nm (FL1) and propidium iodide was detected at 617 nm (FL2).

Series [6] has as its system multicellular A549 tumor spheroids. In words: Cytotoxic activity against spheroids (CellTiter-Glo 3D). In kind it is cell-based, human. The conditions noted are these: for IC50: 48 h. As to the method: For the evaluation of the cytotoxic activity of complex 6 in 3D cultures, 96-well plates coated with a thin solidified layer of Geltrex reduced growth factor basement membrane matrix (Gibco) were used to form A549 spheroids. A density of 1500 single cells per well was seeded in culture medium supplemented with 2% Geltrex. Treatments with concentrations of complex 6 ranging from 5 to 0.001 μM in culture medium containing 2% Geltrex were performed at day 6. The cells were then kept in the dark or photoactivated with blue light, as described. After 48 h, the treatments were removed, the cells were washed with PBS and cell viability was determined by adding 100 μL of medium and 100 μL of CellTiter-Glo 3D reagent (Promega) to each well. Following the manufacturer’s protocol, the cells were kept in agitation for 5 min and incubated for 25 min at room temperature. Then, the luminescence was determined using a Multiscan Plate Reader (Synergy 4, Biotek, Winooski). The IC50 values were calculated with the Gen5 Data Analysis Software (BioTeck) for two independent experiments, each with duplicate samples. Nontreated cells were used as control.
On the technique in general: In ATP-based viability assays light output follows the ATP content of the culture.

One may read the IC50 as the point on the concentration scale where inhibition reaches its midpoint.

Where “and” joins values, the source holds several entries; their conditions need not be identical. Equal entries are not always repeated. Where two headings read alike, the source gives them in different places.

`Cc1c(C)c(C)[c-](C)c1C.[Cl][Ir]1[c]2cccc3c4nc5ccccc5nc4c4ccc[n+]1c4c23` [complex 1, [(η^5-C5Me5)IrCl(pbpz)]]: the “Percentage of species (chlorido complex remaining / aqua adduct formed), 1H NMR” value in series [1] (DMSO‐d6, dark, 0 h) stood at 100%; in series [1] (DMSO‐d6, dark, 0.5 h), 78%; in series [1] (DMSO‐d6, dark, 1 h), 76%; in series [1] (DMSO‐d6, dark, 1.5 h), 75%; in series [1] (DMSO‐d6, dark, 2.5 h), 72%; in series [1] (DMSO‐d6, dark, 4.5 h), 71%. In addition, the “Percentage of species (chlorido complex remaining / aqua adduct formed), 1H NMR” value turned out to be 70% in series [1] (DMSO‐d6, dark, 6 h); 69% in series [1] (DMSO‐d6, dark, 8 h); 68% in series [1] (DMSO‐d6, dark, 10 h); 57% in series [1] (DMSO‐d6, dark, 32 h); 49% in series [1] (DMSO‐d6, dark, 50 h); 40% in series [1] (DMSO‐d6, dark, 70 h). Moreover, the “Percentage of species (chlorido complex remaining / aqua adduct formed), 1H NMR” value in series [1] (DMSO‐d6, dark, 97 h) was determined as 35%; in series [1] (DMSO‐d6/D2O (9/1), dark, 0 h) it was 100%; in series [1] (DMSO‐d6/D2O (9/1), dark, 0.5 h), 4%; in series [1] (DMSO‐d6/D2O (9/1), dark, 1 h) it was 0.5%; in series [1] (DMSO‐d6/D2O (9/1), dark, 1.5 h), 0%; in series [1] (DMSO‐d6/D2O (9/1), dark, 2.5 h) it was 0%. The “Percentage of species (chlorido complex remaining / aqua adduct formed), 1H NMR” value in series [1] (DMSO‐d6/D2O (9/1), dark, 4.5 h) is listed as 0%; in series [1] (DMSO‐d6/D2O (9/1), dark, 6 h), 0%; in series [1] (DMSO‐d6/D2O (9/1), dark, 8 h), 0%; in series [1] (DMSO‐d6/D2O (9/1), dark, 10 h), 0%; in series [1] (DMSO‐d6/D2O (9/1), dark, 32 h), 0%; in series [1] (DMSO‐d6/D2O (9/1), dark, 50 h), 0%. Besides, the “Percentage of species (chlorido complex remaining / aqua adduct formed), 1H NMR” value in series [1] (DMSO‐d6/D2O (9/1), dark, 70 h) is given as 0%; in series [1] (DMSO‐d6/D2O (9/1), dark, 97 h), 0%.

With `Cc1c(C)c(C)[c-](C)c1C.F[B-](F)(F)F.c1ccc2nc3c4ccc[n+]5c4c4[c](cccc4c3nc2c1)[Ir]5[n+]1ccn(CCN2CCCCC2)c1` [complex 5, [(η^5-C5Me5)Ir(Imepip)(pbpz)]BF4], the pKa in series [2] is 7.2 and 7.19.

Turning to `Cc1c(C)c(C)[c-](C)c1C.F[B-](F)(F)F.c1ccc2cc3nc4c5ccc[n+]6c5c5[c](cccc5c4nc3cc2c1)[Ir]6[n+]1cc[nH]c1` [complex 4, [(η^5-C5Me5)Ir(Im)(pbpn)]BF4], the “superoxide anion (O2•–) increase in mean fluorescence” value (“superoxide anion (O2•–) increase” below) in the series on A549 cells [3] is 2.4 fold.

Take `Cc1c(C)c(C)[c-](C)c1C.F[B-](F)(F)F.c1ccc(Cn2cc[n+]([Ir]3[c]4cccc5c6nc7cc8ccccc8cc7nc6c6ccc[n+]3c6c45)c2)cc1` [complex 8, [(η^5-C5Me5)Ir(bzIm)(pbpn)]BF4]: the “superoxide anion (O2•–) increase” value in the series on A549 cells [3] is given as 2.6 fold.

As to `Cc1c(C)c(C)[c-](C)c1C.F[B-](F)(F)F.c1ccc2cc3nc4c5ccc[n+]6c5c5[c](cccc5c4nc3cc2c1)[Ir]6[n+]1ccn(CCN2CCCCC2)c1` [complex 6, [(η^5-C5Me5) Ir(Imepip)(pbpn)]BF4], the pKa in series [2] is 7.8 and 7.85. In addition, in the series with A549 cells [3], the “superoxide anion (O2•–) increase” value stood at 2.8 fold. In addition, in the series with A549 cells [4], the “iridium in cytoskeletal fraction” value amounted to 11.0 ± 4 ng Ir/10^6 cells, the “iridium in cytosolic fraction” value is given as 4.6 ± 2 ng Ir/10^6 cells, the “iridium in membrane/organelles fraction” value is reported as 140.8 ± 20 ng Ir/10^6 cells and the “iridium in nuclear fraction” value was found to be 7.1 ± 4 ng Ir/10^6 cells. Further, in the series with A549 cells [5] (IC50,light × 5, 4 h), the “cells in early apoptosis (AN+; IP−), lower right quadrant” value worked out at 1.7%; the “cells in late apoptosis (AN+; IP+), upper right quadrant” value was 15.8%; the “cells in necrosis (AN–; IP+), upper left quadrant” value is reported as 6.4%. Further, in the series with A549 cells [5] (IC50,light × 5, 20 h), the “cells in late apoptosis (AN+; IP+), upper right quadrant” value was found to be 43.2% and the “cells in necrosis (AN–; IP+), upper left quadrant” value is on record as 10.4%. Further, in series [1] (DMSO-d6/D2O (9/1), dark or blue, green or red light irradiation), the “release of the N-donor ligand (1H NMR)” value is reported as “not observed”. For the same compound, in series [6] (blue light photoactivation, read-out: IC50,light), the IC50 came out at 5 ± 1 nM. Besides, the 50% inhibitory concentration (IC50) in series [6] (dark, read-out: IC50,dark) is 1200 ± 200 nM. Further, in series [6] (blue light), the PI was found to be 240.

Values taken from publication PMC10859961, “Ir(III) Half-Sandwich Photosensitizers with a π-Expansive Ligand for Efficient Anticancer Photodynamic Therapy” (Journal of Medicinal Chemistry, 2024).
